Test: UV absorbance of sunscreen compositions (FIG. 9)
Type: physicochemical
Source text: FIG. 9 depicts the UV absorbance of two specific suncreen compositions.
Thus, to adequately protect human skin from the UV-induced enzymes that degrade the collagen matrix, and which inhibit collagen biosynthesis, a sunscreen formulation must block both radiation of less then 325 nm and that between about 360 nm and 400 nm. In our prior application Ser. No. 09/089,914, we proposed a sunscreen comprising a UVB blocker such as PARSOL MCX and a UVA blocker such as PARSOL 1789. Other UVB blockers known in the art, and in light of the information provided herein, are also suitable. However, various UVA blockers, including PARSOL 1789 and various others such as TINOSORB brand blockers (available from Ciba, Basel, Switzerland) are relatively broadband blockers and while blocking some of the UVA radiation in the >360-400 nm range, are not optimized for that region. […] As noted above, these wavelengths are greater than the 360 nm the industry desires to block with its compounds, because it is generally believed that a broad band absorber will provide the desired blocking effects. To the contrary, we have shown that it is sufficient to block narrow bands of UV radiation, namely 295-325 nm in the UVB, more preferably 305-325 nm, and those wavelengths above 360 nm in the UVA, and that blocking these wavelengths achieves the desired prevention of UV-induced […] of MMPs in human skin.

- UV absorbance (UVA1 area of 340-360 nm): appears adequate
- UV absorbance (area of 390-400 nm): almost no absorbance
- UV absorbance (at 370 nm): falls off
- UV absorbance (to 380 nm): falls off dramatically
SMILES: COc1ccc(C(=O)CC(=O)c2ccc(C(C)(C)C)cc2)cc1 [PARSOL 1789]

Source: patent publication US20060269491A1, “UVA (> 360-400) and UVB (300-325) specific sunscreens” (priority 2000, published 2006)
